Target: T1, human PTHR1 receptor (Homo sapiens, UniProt Q03431)
T1 construct: purchased Eurofins HTS030M
T1 sequence (Q03431 27-593): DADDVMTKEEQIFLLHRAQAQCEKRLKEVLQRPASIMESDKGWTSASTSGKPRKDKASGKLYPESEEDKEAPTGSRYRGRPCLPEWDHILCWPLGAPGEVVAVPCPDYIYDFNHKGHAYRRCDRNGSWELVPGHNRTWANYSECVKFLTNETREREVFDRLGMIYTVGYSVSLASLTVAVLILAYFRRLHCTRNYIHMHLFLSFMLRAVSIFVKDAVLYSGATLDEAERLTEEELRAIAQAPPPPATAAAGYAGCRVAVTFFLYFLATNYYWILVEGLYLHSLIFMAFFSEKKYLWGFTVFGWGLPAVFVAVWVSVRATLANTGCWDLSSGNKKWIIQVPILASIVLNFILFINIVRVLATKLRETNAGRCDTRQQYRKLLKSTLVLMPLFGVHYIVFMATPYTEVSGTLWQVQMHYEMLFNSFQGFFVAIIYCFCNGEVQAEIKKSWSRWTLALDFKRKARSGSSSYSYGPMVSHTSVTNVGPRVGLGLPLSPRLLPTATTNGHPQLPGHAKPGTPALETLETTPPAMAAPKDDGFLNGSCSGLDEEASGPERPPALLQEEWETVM
Assay: Competitive antagonist binding assay for hPTH-R1 (radioactive competition binding, SPA beads)
Settings: human PTHR1 membranes, [125I]-[Nle8,18,Tyr34]-PTH(1-34) 0.2 nM, 90 minutes at room temperature; read-out: hPTHR1 Ki
Outline: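 Displacement of 0.2 nM radioiodinated [Nle8,18,Tyr34]-PTH(1-34) from membrane-bound human PTHR1 measured by scintillation proximity after 90 min at room temperature. Compounds typically 0-10,000 nM final, pH 7.4 HEPES/Mg/Ca buffer with BSA and detergent. Ki calculated from competition data.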

SMILES	Ki
CCN1C(=O)N(c2c(F)cc(NCCN[C@H]3CC[C@H](C(=O)O)CC3)cc2F)c2cc(C#N)ccc2-c2cc(Cl)cnc21 [1-193, (1r,4r)-4-({2-[(4-{4-chloro-13-cyano-8-ethyl-9-oxo-6,8,10-triazatricyclo[9.4.0.0^2,7]pentadeca-1(11),2(7),3,5,12,14-hexaen-10-yl}-3,5-difluorophenyl)amino]ethyl}amino)cyclohexane-1-carboxylic acid]	< 100 nM
CCN1C(=O)N(c2c(F)cc(NCCNC[C@@H](O)CO)cc2F)c2cc(C#N)ccc2-c2cc(F)cnc21 [1-194, 10-{4-[(2-{[(2R)-2,3-dihydroxypropyl]amino}ethyl)amino]-2,6-difluorophenyl}-8-ethyl-4-fluoro-9-oxo-6,8,10-triazatricyclo[9.4.0.0^2,7]pentadeca-1(11),2(7),3,5,12,14-hexaene-13-carbonitrile]	< 100 nM
CN1C(=O)N(c2c(F)cc(NCCNCCO)cc2F)c2cc(C#N)ccc2-c2cc(Cl)cnc21 [1-195, 4-chloro-10-[2,6-difluoro-4-({2-[(2-hydroxyethyl)amino]ethyl}amino)phenyl]-8-methyl-9-oxo-6,8,10-triazatricyclo[9.4.0.0^2,7]pentadeca-1(11),2(7),3,5,12,14-hexaene-13-carbonitrile]	< 100 nM
CCN1C(=O)N(c2c(F)cc(NCCN[C@@H]3CC[C@H]3O)cc2F)c2cc(C#N)ccc2-c2cc(C(F)(F)F)cnc21 [1-196, 10-{2,6-difluoro-4-[(2-{[(1R,2R)-2-hydroxycyclobutyl]amino}ethyl)amino]phenyl}-8-ethyl-9-oxo-4-(trifluoromethyl)-6,8,10-triazatricyclo[9.4.0.0^2,7]pentadeca-1(11),2(7),3,5,12,14-hexaene-13-carbonitrile]	< 100 nM
CN1C(=O)N(c2c(F)cc(NCCNCCCO)cc2F)c2cc(C#N)ccc2-c2cc(Cl)cnc21 [1-197, 4-chloro-10-[2,6-difluoro-4-({2-[(3-hydroxypropyl)amino]ethyl}amino)phenyl]-8-methyl-9-oxo-6,8,10-triazatricyclo[9.4.0.0^2,7]pentadeca-1(11),2(7),3,5,12,14-hexaene-13-carbonitrile]	< 100 nM
CN1C(=O)N(c2c(F)cc(NCCN[C@H]3C[C@H](O)C3)cc2F)c2cc(C#N)ccc2-c2cc(Cl)cnc21 [1-198, 4-chloro-10-{2,6-difluoro-4-[(2-{[(1r,3r)-3-hydroxycyclobutyl]amino}ethyl)amino]phenyl}-8-methyl-9-oxo-6,8,10-triazatricyclo[9.4.0.0^2,7]pentadeca-1(11),2(7),3,5,12,14-hexaene-13-carbonitrile]	< 100 nM
CCN1C(=O)N(c2c(F)cc(NCCNC[C@H](C)O)cc2F)c2cc(C#N)ccc2-c2cc(F)cnc21 [1-199, 10-{2,6-difluoro-4-[(2-{[(2S)-2-hydroxypropyl]amino}ethyl)amino]phenyl}-8-ethyl-4-fluoro-9-oxo-6,8,10-triazatricyclo[9.4.0.0^2,7]pentadeca-1(11),2(7),3,5,12,14-hexaene-13-carbonitrile]	< 100 nM
CCN1C(=O)N(c2c(F)cc(NCCNC[C@H](O)CO)cc2F)c2cc(C#N)ccc2-c2cc(F)cnc21 [1-200, 10-{4-[(2-{[(2S)-2,3-dihydroxypropyl]amino}ethyl)amino]-2,6-difluorophenyl}-8-ethyl-4-fluoro-9-oxo-6,8,10-triazatricyclo[9.4.0.0^2,7]pentadeca-1(11),2(7),3,5,12,14-hexaene-13-carbonitrile]	< 100 nM
CN1C(=O)N(c2c(F)cc(NCCNCCCC(=O)O)cc2F)c2cc(C#N)ccc2-c2cc(Cl)cnc21 [1-201, 4-({2-[(4-{4-chloro-13-cyano-8-methyl-9-oxo-6,8,10-triazatricyclo[9.4.0.0^2,7]pentadeca-1(11),2(7),3,5,12,14-hexaen-10-yl}-3,5-difluorophenyl)amino]ethyl}amino)butanoic acid]	< 100 nM
CCN1C(=O)N(c2c(F)cc(NCCN[C@@H](CO)CC(=O)O)cc2F)c2cc(C#N)ccc2-c2cc(Cl)cnc21 [1-202, (3R)-3-({2-[(4-{4-chloro-13-cyano-8-ethyl-9-oxo-6,8,10-triazatricyclo[9.4.0.0^2,7]pentadeca-1(11),2(7),3,5,12,14-hexaen-10-yl}-3,5-difluorophenyl)amino]ethyl}amino)-4-hydroxybutanoic acid]	< 100 nM

Next, values leading:

Ki	SMILES
< 100 nM	CCN1C(=O)N(c2c(F)cc(NCCNCCOCCO)cc2F)c2cc(C#N)ccc2-c2cc(Cl)cnc21 [1-181, 4-chloro-10-{2,6-difluoro-4-[(2-{[2-(2-hydroxyethoxy)ethyl]amino}ethyl)amino]phenyl}-8-ethyl-9-oxo-6,8,10-triazatricyclo[9.4.0.0^2,7]pentadeca-1(11),2(7),3,5,12,14-hexaene-13-carbonitrile]
< 100 nM	CCN1C(=O)N(c2c(F)cc(N3CCC(NCCO)C3)cc2F)c2cc(C#N)ccc2-c2cc(Cl)cnc21 (stereo not drawn) [1-182, 4-chloro-10-(2,6-difluoro-4-{3-[(2-hydroxyethyl)amino]pyrrolidin-1-yl}phenyl)-8-ethyl-9-oxo-6,8,10-triazatricyclo[9.4.0.0^2,7]pentadeca-1(11),2(7),3,5,12,14-hexaene-13-carbonitrile]
< 100 nM	CCN1C(=O)N(c2c(F)cc(NCCNC[C@@H](O)CO)cc2F)c2cc(C#N)ccc2-c2cc(Cl)cnc21 [1-183, 4-chloro-10-{4-[(2-{[(2R)-2,3-dihydroxypropyl]amino}ethyl)amino]-2,6-difluorophenyl}-8-ethyl-9-oxo-6,8,10-triazatricyclo[9.4.0.0^2,7]pentadeca-1(11),2(7),3,5,12,14-hexaene-13-carbonitrile]
< 100 nM	CCN1C(=O)N(c2c(F)cc(NCCN[C@@H]3CC[C@@H]3O)cc2F)c2cc(C#N)ccc2-c2cc(C(F)(F)F)cnc21 [1-184, 10-{2,6-difluoro-4-[(2-{[(1R,2S)-2-hydroxycyclobutyl]amino}ethyl)amino]phenyl}-8-ethyl-9-oxo-4-(trifluoromethyl)-6,8,10-triazatricyclo[9.4.0.0^2,7]pentadeca-1(11),2(7),3,5,12,14-hexaene-13-carbonitrile]
< 100 nM	CCN1C(=O)N(c2c(F)cc(NCCN[C@@H](C)CO)cc2F)c2cc(C#N)ccc2-c2cc(Cl)cnc21 [1-185, 4-chloro-10-{2,6-difluoro-4-[(2-{[(2S)-1-hydroxypropan-2-yl]amino}ethyl)amino]phenyl}-8-ethyl-9-oxo-6,8,10-triazatricyclo[9.4.0.0^2,7]pentadeca-1(11),2(7),3,5,12,14-hexaene-13-carbonitrile]
< 100 nM	CCN1C(=O)N(c2c(F)cc(NCCNC[C@@H](C)O)cc2F)c2cc(C#N)ccc2-c2cc(Cl)cnc21 [1-186, 4-chloro-10-{2,6-difluoro-4-[(2-{[(2R)-2-hydroxypropyl]amino}ethyl)amino]phenyl}-8-ethyl-9-oxo-6,8,10-triazatricyclo[9.4.0.0^2,7]pentadeca-1(11),2(7),3,5,12,14-hexaene-13-carbonitrile]
< 100 nM	CCN1C(=O)N(c2c(F)cc(NCCN[C@H]3C[C@H](O)C3)cc2F)c2cc(C#N)ccc2-c2cc(Cl)cnc21 [1-187, 4-chloro-10-{2,6-difluoro-4-[(2-{[(1r,3r)-3-hydroxycyclobutyl]amino}ethyl)amino]phenyl}-8-ethyl-9-oxo-6,8,10-triazatricyclo[9.4.0.0^2,7]pentadeca-1(11),2(7),3,5,12,14-hexaene-13-carbonitrile]
< 100 nM	CCN1C(=O)N(c2c(F)cc(NCCNCCOC(N)=O)cc2F)c2cc(C#N)ccc2-c2cc(Cl)cnc21 [1-189, 2-({2-[(4-{4-chloro-13-cyano-8-ethyl-9-oxo-6,8,10-triazatricyclo[9.4.0.0^2,7]pentadeca-1(11),2(7),3,5,12,14-hexaen-10-yl}-3,5-difluorophenyl)amino]ethyl}amino)ethyl carbamate]
< 100 nM	CCN1C(=O)N(c2c(F)cc(NCCNCCCO)cc2F)c2cc(C#N)ccc2-c2cc(Cl)cnc21 [1-190, 4-chloro-10-[2,6-difluoro-4-({2-[(3-hydroxypropyl)amino]ethyl}amino)phenyl]-8-ethyl-9-oxo-6,8,10-triazatricyclo[9.4.0.0^2,7]pentadeca-1(11),2(7),3,5,12,14-hexaene-13-carbonitrile]
< 100 nM	CCN1C(=O)N(c2c(F)cc(NCCNCCN3CCOC3=O)cc2F)c2cc(C#N)ccc2-c2cc(Cl)cnc21 [1-191, 4-chloro-10-{2,6-difluoro-4-[(2-{[2-(2-oxo-1,3-oxazolidin-3-yl)ethyl]amino}ethyl)amino]phenyl}-8-ethyl-9-oxo-6,8,10-triazatricyclo[9.4.0.0^2,7]pentadeca-1(11),2(7),3,5,12,14-hexaene-13-carbonitrile]
< 100 nM	CCN1C(=O)N(c2c(F)cc(NCCN[C@H]3C[C@@H](O)C3)cc2F)c2cc(C#N)ccc2-c2cc(Cl)cnc21 [1-192, 4-chloro-10-{2,6-difluoro-4-[(2-{1[(1s,3s)-3-hydroxycyclobutyl]amino}ethyl)amino]phenyl}-8-ethyl-9-oxo-6,8,10-triazatricyclo[9.4.0.0^2,7]pentadeca-1(11),2(7),3,5,12,14-hexaene-13-carbonitrile]
